Drawing on patent publication US20090270435A1 (priority 2006, published 2009), this text covers IC50 for 35 compounds.

Structures can show the parent of a compound that is named as a salt.

The first assay has as its target T1, ACC1 from rat liver (Rattus norvegicus, UniProt P11497).
T1 construct: The livers (for ACC1 preparation) or skeletal muscle tissue (for ACC2 preparation) are removed; from tissue; host or cells: liver of male CD rats (fasted, then fed a high sucrose diet)
The assay can be described thus: Direct inhibition of ACC1 activity (14C-bicarbonate incorporation). Format: biochemical. Conditions: ACC1 from rat liver. The method in brief:
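ACC1 partially purified from livers of fasted/sucrose-refed male rats by PEG and ammonium sulfate fractionation, then preincubated 30 min at 37°C with 10 mM citrate and 1.0 mM MgCl2. Reaction ran 7 min at 37°C, stopped with HCl; acid-stable radioactivity counted by scintillation; HCl-first tubes served as blanks.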
Turning to `Cc1cc2c(cc1C)C(=O)CC1(CCN(C(=O)c3ccc4nn(C)cc4c3)CC1)O2` [Ex. J3, 6,7-dimethyl-1′-[(2-methyl-2H-indazolyl)carbonyl]spiro[chromene-2,4-piperidin]-4(3H)-one], it took 353 nM to reach half-maximal inhibition (IC50). Same read-out and setting: then `COc1cccc2c1C(=O)CC1(CCN(C(=O)c3ccc4nc(-c5ccccc5)[nH]c4c3)CC1)O2` [Ex. L35, 5-methoxy-1′-[(2-phenyl-1H-benzimidazol-6-yl)-carbonyl]spiro[chromene-2,4′-piperidin]-4(3H)-one], with 15.5 nM; and “1′-1H-indol ylcarbonyl)-6,7-dimethylspiro[chromene-2,4′-piperidin]-4(3H)-one trifluoroacetic acid salt [Ex. L14]”, with 479 nM. On the same count and under the same terms, with `O=C(O)c1ccc2c(c1)C(=O)CC1(CCN(C(=O)c3cccc(-c4cc[nH]n4)c3)CC1)O2` [Ex. N1, 4-oxo-1′-[3-(1H-pyrazol-3-yl)benzoyl]-3,4-dihydrospiro[chromene-2,4′-piperidine]-6-carboxylic acid trifluoroacetic acid salt] the figure was 891 nM. On the same count and under the same terms, with `Cc1cc2c(cc1C)C(=O)CC1(CCN(C(=O)c3cccc4cn[nH]c34)CC1)O2` [Ex. H1, 1′-(1H-indazol-7-ylcarbonyl)-6,7-dimethylspiro[chromene-2,4′-piperidin]-4(3H)-one] the figure was 163 nM. In turn, `COc1cccc2c1C(=O)CC1(CCN(C(=O)c3ccc4[nH]c5c(c4c3)CCCC5)CC1)O2` [Ex. L16, 5-methoxy-1′-(2,3,4,9-tetrahydro-1H-carbazol-6-ylcarbonyl)spiro[chromene-2,4′-piperidin]-4(3H)-one] displayed an IC50 of 65 nM.

`Cc1cc2c(cc1C)C(=O)CC1(CCN(C(=O)c3ccc4ccn(C)c4c3)CC1)O2` [Ex. L4, 6,7-dimethyl-1′-[(1-methyl-1H-indol-6-yl)carbonyl]spiro[chromene-2,4′-piperidin]-4(3H)-one] came in with a half-inhibitory concentration (IC50) of 83.3 nM.

In turn, `Cc1cc(C)c2c(c1)C(=O)CC1(CCN(C(=O)c3cccc4cn[nH]c34)CC1)O2` [Ex. H13, 1′-(1H-indazol-7-ylcarbonyl)-6,8-dimethylspiro[chromen-2,4′-piperidin]-4(3H)-one] showed an IC50 of 1320 nM.

Compound `Cc1cc2c(cc1C)C(=O)CC1(CCN(C(=O)c3ccc4[nH]c5c(c4c3)CCNC5=O)CC1)O2` [Ex. K1, 6,7-dimethyl-1′-[(1-oxo-2,3,4,9-tetrahydro-1H-beta-carbolin-6-yl)carbonyl]spiro[chromene-2,4′-piperidin]-4(3H)-one] had an IC50 of 9.98 nM. Turning to `Cc1cc2ccc(C(=O)N3CCC4(CC3)CC(=O)c3cc(C)c(C)cc3O4)cc2[nH]1` [Ex. L3, 6,7-dimethyl-1′-[(2-methyl-1H-indol-6-yl)carbonyl]spiro[chromene-2,4′-piperidin]-4(3H)-one trifluoroacetic acid salt], half-maximal inhibition (IC50) required 368 nM. `O=C1CC2(CCN(C(=O)c3ccc4[nH]c5c(c4c3)CCNC5=O)CC2)Oc2ccc(Cl)cc21` [Ex. K3, 6-chloro-1′-[(1-oxo-2,3,4,9-tetrahydro-1H-beta-carbolin-6-yl)carbonyl]spiro[chromene-2,4′-piperidin]-4(3H)-one] returned an IC50 of 106 nM.

On to `CCc1nn(C)c2cc(C(=O)N3CCC4(CC3)CC(=O)c3cc(C)c(C)cc3O4)ccc12` [Ex. G4, 1′-[(3-ethyl-1-methyl-1H-indazol-6-yl)carbonyl]-6,7-dimethylspiro[chromene-2,4′-piperidin]-4(3H)-one], for which the concentration for half-maximal inhibition (IC50) came out at 80.1 nM.

For the compound `Cc1cc(C)c2c(c1)OC1(CCN(C(=O)c3cc(C)c4[nH]ncc4c3)CC1)CC2=O` [Ex. A29, 5,7-dimethyl-1′-[(7-methyl-1H-indazol-5-yl)carbonyl]spiro[chromene-2,4′-piperidin]-4(3H)-one], the IC50 was 146 nM. Compound `O=C1CC2(CCN(C(=O)c3ccc4[nH]nnc4c3)CC2)Oc2ccc(Cl)cc21` [Ex. L38, 1′-(1H-1,2,3-benzotriazol-5-ylcarbonyl)-6-chlorospiro[chromene-2,4′-piperidin]-4(3H)-one] showed an IC50 of less than 1000 nM. Still for that read-out and setting: then `Cc1cc2c(c(C)c1Cl)C(=O)CC1(CCN(C(=O)c3cc(C)c4[nH]ncc4c3)CC1)O2` [Ex. A18, 6-chloro-5,7-dimethyl-1′-[(7-methyl-1H-indazol-5-yl)carbonyl]spiro[chromene-2,4′-piperidin]-4(3H)-one], with 72 nM; and `Cc1cc2c(cc1C)C(=O)CC1(CCN(C(=O)c3ccc4c(C)n[nH]c4c3)CC1)O2` [Ex. F1, 6,7-dimethyl-1′-[(3-methyl-1H-indazol-6-yl)carbonyl]spiro[chromene-2,4′-piperidin]-4(3H)-one], with 35.7 nM. `Cc1cc2c(cc1Cl)C(=O)CC1(CCN(C(=O)c3ccc4c(cnn4C)c3)CC1)O2` [Ex. D3, 6-chloro-7-methyl-1′-[(1-methyl-1H-indazol-5-yl)carbonyl]spiro[chromene-2,4′-piperidin]-4(3H)-one] yielded an IC50 of 250 nM.

On to `Cn1ccc2ccc(C(=O)N3CCC4(CC3)CC(=O)c3cc(Cl)ccc3O4)cc21` [Ex. L5, 6-chloro-1′-[(1-methyl-1H-indol-6-yl)carbonyl]spiro[chromene-2,4′-piperidin]-4(3H)-one], for which the IC50 is less than 1000 nM.

Regarding `COc1cc(C)c2c(c1)OC1(CCN(C(=O)c3cc(C)c4[nH]ncc4c3)CC1)CC2=O` [Ex. A28, 7-methoxy-5-methyl-1′-[(7-methyl-1H-indazol-5-yl)carbonyl]spiro[chromene-2,4′-piperidin]-4(3H)-one], the half-maximal inhibitory concentration (IC50) worked out at 138 nM. Regarding `Cc1cc2c(cc1C)C(=O)CC1(CCN(C(=O)c3ccc4[nH]nnc4c3)CC1)O2` [Ex. L37, 1′-(1H-1,2,3-benzotriazol-5-ylcarbonyl)-6,7-dimethylspiro[chromene-2,4′-piperidin]-4(3H)-one], the IC50 worked out at 151 nM. In turn, `COc1ccc2c(c1)OC1(CCN(C(=O)c3cccc4cn[nH]c34)CC1)CC2=O` [Ex. H21] registered a concentration for half-maximal inhibition (IC50) of 2530 nM.

In turn, `CCc1cc(C(=O)N2CCC3(CC2)CC(=O)c2cc(C(=O)OC)ccc2O3)cc2cn[nH]c12` [Ex. C5, methyl 1′-[(7-ethyl-1H-indazol-5-yl)carbonyl]-4-oxo-3,4-dihydrospiro[chromene-2,4′-piperidine]-6-carboxylate] registered an IC50 of 49.5 nM. The same measure, in the same setting: with `COc1ccc2c(c1)OC1(CCN(C(=O)c3cc(C)c4[nH]ncc4c3)CC1)CC2=O` [Ex. A24, 7-methoxy-1′-[(7-methyl-1H-indazol-5-yl)carbonyl]spiro[chromene-2,4′-piperidin]-4(3H)-one] the figure was 122 nM; with `Cc1cc2c(cc1Cl)C(=O)CC1(CCN(C(=O)c3cccc4[nH]cnc34)CC1)O2` [Ex. L18, 1′-(1H-benzimidazol-4-ylcarbonyl)-6-chloro-7-methylspiro[chromene-2,4′-piperidin]-4(3H)-one], 2010 nM; with “5,7-dichloro-1′-(1H-indazol-7-ylcarbonyl)spiro[chromene-2,4′-piperidin]-4(3H)-one [Ex. H15]”, 1480 nM.

Staying with this assay, now noted: Table of Examples M1-M36.
Compound `COc1cccc2c1C(=O)CC1(CCN(C(=O)c3cccc(-c4cc[nH]n4)c3)CC1)O2` [Ex. M27, 5-methoxy-1′-[3-(1H-pyrazol-3-yl)benzoyl]spiro[chromene-2,4′-piperidin]-4(3H)-one] registered an IC50 of 545 nM.

With `Cc1cc2c(c(C)c1Cl)C(=O)CC1(CCN(C(=O)c3cccc(-c4cc[nH]n4)c3)CC1)O2` [M22, 6-chloro-5,7-dimethyl-1′-[3-(1H-pyrazol-3-yl)benzoyl]spiro[chromene-2,4′-piperidin]-4(3H)-one], 452 nM corresponded to half-maximal inhibition (IC50). Still for that read-out and setting: then `CS(=O)(=O)c1ccc2c(c1)C(=O)CC1(CCN(C(=O)c3cccc(-c4cc[nH]n4)c3)CC1)O2` [M20, 6-(methylsulfonyl)-1′-[3-(1H-pyrazol-3-yl)benzoyl]spiro[chromene-2,4′-piperidin]-4(3H)-one], with 434 nM; and `Cc1cc2c(cc1C)C(=O)CC1(CCN(C(=O)c3cccc(-c4cc[nH]n4)c3)CC1)O2` [Ex. M2, 6,7-dimethyl-1′-[3-(1H-pyrazol-3-yl)benzoyl]spiro[chromene-2,4′-piperidin]-4(3H)-one], with 73.6 nM; and `COc1c(Cl)ccc2c1C(=O)CC1(CCN(C(=O)c3cccc(-c4cc[nH]n4)c3)CC1)O2` [Ex. M18, 6-chloro-5-methoxy-1′-[3-(1H-pyrazol-3-yl)benzoyl]spiro[chromene-2,4′-piperidin]-4(3H)-one], with 374 nM. The same measure, in the same setting: with `O=C1CC2(CCN(C(=O)c3cccc(-c4cc[nH]n4)c3)CC2)Oc2cc(Cl)c(Cl)cc21` [Ex. M8, 6,7-dichloro-1′-[3-(1H-pyrazol-3-yl)benzoyl]spiro[chromene-2,4′-piperidin]-4(3H)-one] the figure was 178 nM; with `COC(=O)c1ccc2c(c1)C(=O)CC1(CCN(C(=O)c3cccc(-c4cc[nH]n4)c3)CC1)O2` [Ex. M11, methyl 4-oxo-1′-[3-(1H-pyrazol-3-yl)benzoyl]-3,4-dihydrospiro[chromene-2,4′-piperidine]-6-carboxylate], 202 nM.

Staying with this assay, now noted: Table of Examples P1-P15.
For the compound `Cc1cc2c(cc1Cl)C(=O)CC1(CCN(C(=O)c3cccc(-c4cc(C(F)(F)F)[nH]n4)c3)CC1)O2` [Ex. P2, 6-chloro-7-methyl-1′-{3-[5-(trifluoromethyl)-1H-pyrazol-3-yl]benzoyl}spiro[chromene-2,4′-piperidin]-4(3H)-one trifluoroacetic acid salt], the IC50 is 426 nM. `Cc1cc2c(cc1C)C(=O)CC1(CCN(C(=O)c3cc(-c4cc[nH]n4)ccc3Cl)CC1)O2` [Ex. P5, 1′-[2-chloro-5-(1H-pyrazol-3-yl)benzoyl]-6,7-dimethylspiro[chromene-2,4′-piperidin]-4(3H)-one trifluoroacetic acid salt]: the IC50 was less than 3000 nM.

In turn, `Cc1cc2c(cc1C)C(=O)CC1(CCN(C(=O)c3cccc(-n4cccn4)c3)CC1)O2` [Ex. P11, 6,7-Dimethyl-1′-[3-(1H-pyrazol-1-yl)benzoyl]spiro[chromene-2,4′-piperidin]-4(3H)-one] showed an IC50 of 399 nM.
